Assay results: patent publication US20230085307A1, “PYRIDAZINONE COMPOUND AND HERBICIDE” (NISSAN CHEMICAL CORPORATION, priority 2019, published 2023)

Columns and labels:
[1] = tested on: Italian ryegrass; assay: Test Example 5: herbicidal effect by foliage application, plastic box (Table 20, symbol K); type: in vivo, Italian ryegrass (Lolium multiflorum); conditions: foliage application, AAH 320 g/ha, evaluated three weeks after application
How it was run: (§1)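 Foliar spray test: emulsion formulation diluted in water to a set application rate, sprayed onto 14-day-old plants raised in diluvial soil at 25° C to 30° C under glass. Both herbicidal effect and crop effect rated visually three weeks later.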

[2] = tested on: velvetleaf; assay: Test Example 4: herbicidal effect by soil treatment (Table 19, symbol M); type: in vivo, velvetleaf (Abutilon theophrasti); conditions: amount of applied herbicide 320 g/ha
How it was run: (§2)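 Herbicidal effect was rated 3 weeks after treatment, using the scoring criteria of an earlier test. The compound, formulated as an emulsion and diluted in water to a set herbicide amount, had been sprayed uniformly on soil over freshly sown seeds. Growth took place in a greenhouse at 25° C. to 30° C.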

[3] = tested on: velvetleaf; assay: Test Example 5: herbicidal effect by foliage application, plastic box (Table 20, symbol M); type: in vivo, velvetleaf (Abutilon theophrasti); conditions: foliage application, AAH 320 g/ha, evaluated three weeks after application
How it was run: as §1

[4] = tested on: late watergrass; assay: Test Example 1: herbicidal activity, application before weed generation under submerged conditions (Table 16, symbol A); type: in vivo, late watergrass (Echinochloa oryzicola)
How it was run: (§3)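 Alluvial soil was flooded to 4 cm depth, weed seeds were sown mixed and 2.5-leaf rice seedlings were transplanted. On sowing day, the compound's emulsion, diluted in water to a set dose, was applied to the water surface. Plants grew at 25–30 °C and were scored 0–5 after three weeks.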

[5] = tested on: green foxtail; assay: Test Example 5: herbicidal effect by foliage application, plastic box (Table 20, symbol G); type: in vivo, green foxtail (Setaria viridis); conditions: foliage application, AAH 320 g/ha, evaluated three weeks after application
How it was run: as §1

[6] = tested on: persian speedwell; assay: Test Example 5: herbicidal effect by foliage application, plastic box (Table 20, symbol R); type: in vivo, Persian speedwell (Veronica persica); conditions: foliage application, AAH 320 g/ha, evaluated three weeks after application
How it was run: as §1

[7] = tested on: windgrass; assay: Test Example 4: herbicidal effect by soil treatment (Table 19, symbol L); type: in vivo, windgrass (Apera spica-venti); conditions: amount of applied herbicide 320 g/ha
How it was run: as §2

[8] = tested on: Japanese bulrush; assay: Test Example 1: herbicidal activity, application before weed generation under submerged conditions (Table 16, symbol B); type: in vivo, Japanese bulrush (Schoenoplectus juncoides)
How it was run: as §3

[9] = tested on: barnyard grass; assay: Test Example 4: herbicidal effect by soil treatment (Table 19, symbol H); type: in vivo, barnyard grass (Echinochloa crus-galli); conditions: amount of applied herbicide 320 g/ha
How it was run: as §2

[10] = tested on: chickweed; assay: Test Example 4: herbicidal effect by soil treatment (Table 19, symbol P); type: in vivo, common chickweed (Stellaria media); conditions: amount of applied herbicide 320 g/ha
How it was run: as §2

[11] = tested on: southern crabgrass; assay: Test Example 5: herbicidal effect by foliage application, plastic box (Table 20, symbol F); type: in vivo, southern crabgrass (Digitaria ciliaris); conditions: foliage application, AAH 320 g/ha, evaluated three weeks after application
How it was run: as §1

[12] = tested on: southern crabgrass; assay: Test Example 4: herbicidal effect by soil treatment (Table 19, symbol F); type: in vivo, southern crabgrass (Digitaria ciliaris); conditions: amount of applied herbicide 320 g/ha
How it was run: as §2

[13] = tested on: green foxtail; assay: Test Example 4: herbicidal effect by soil treatment (Table 19, symbol G); type: in vivo, green foxtail (Setaria viridis); conditions: amount of applied herbicide 320 g/ha
How it was run: as §2

[14] = tested on: chickweed; assay: Test Example 5: herbicidal effect by foliage application, plastic box (Table 20, symbol P); type: in vivo, common chickweed (Stellaria media); conditions: foliage application, AAH 320 g/ha, evaluated three weeks after application
How it was run: as §1

[15] = tested on: Italian ryegrass; assay: Test Example 4: herbicidal effect by soil treatment (Table 19, symbol K); type: in vivo, Italian ryegrass (Lolium multiflorum); conditions: amount of applied herbicide 320 g/ha
How it was run: as §2

[16] = tested on: barnyard grass; assay: Test Example 5: herbicidal effect by foliage application, plastic box (Table 20, symbol H); type: in vivo, barnyard grass (Echinochloa crus-galli); conditions: foliage application, AAH 320 g/ha, evaluated three weeks after application
How it was run: as §1

[17] = tested on: rice flat sedge; assay: Test Example 3: herbicidal effect by foliage application, Wagner pot (Table 18, symbol E); type: in vivo, rice flat sedge (Cyperus iria); conditions: amount of applied herbicide 320 g/ha
How it was run: (§4)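 Plants were sown in alluvial soil held under 0.1–0.5 cm standing water and grown 14 days in a greenhouse at 25–30 °C. An emulsifiable formulation, water-diluted to the set dose, was then sprayed onto the foliage, and effects were scored three weeks later using previously defined criteria.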

[18] = tested on: lambsquarters; assay: Test Example 4: herbicidal effect by soil treatment (Table 19, symbol O); type: in vivo, lambsquarters (Chenopodium album); conditions: amount of applied herbicide 320 g/ha
How it was run: as §2

[19] = tested on: redroot pigweed; assay: Test Example 4: herbicidal effect by soil treatment (Table 19, symbol N); type: in vivo, redroot pigweed (Amaranthus retroflexus); conditions: amount of applied herbicide 320 g/ha
How it was run: as §2

[20] = tested on: persian speedwell; assay: Test Example 4: herbicidal effect by soil treatment (Table 19, symbol R); type: in vivo, Persian speedwell (Veronica persica); conditions: amount of applied herbicide 320 g/ha
How it was run: as §2

[21] = tested on: oval-leafed pondweed; assay: Test Example 1: herbicidal activity, application before weed generation under submerged conditions (Table 16, symbol C); type: in vivo, oval-leafed pondweed (Monochoria vaginalis)
How it was run: as §3

[22] = tested on: Chinese sprangletop; assay: Test Example 3: herbicidal effect by foliage application, Wagner pot (Table 18, symbol D); type: in vivo, chinese sprangletop (Leptochloa chinensis); conditions: amount of applied herbicide 320 g/ha
How it was run: as §4

[23] = tested on: wild oat; assay: Test Example 4: herbicidal effect by soil treatment (Table 19, symbol I); type: in vivo, wild oat (Avena fatua); conditions: amount of applied herbicide 320 g/ha
How it was run: as §2

[24] = tested on: windgrass; assay: Test Example 5: herbicidal effect by foliage application, plastic box (Table 20, symbol L); type: in vivo, windgrass (Apera spica-venti); conditions: foliage application, AAH 320 g/ha, evaluated three weeks after application
How it was run: as §1

[25] = tested on: lambsquarters; assay: Test Example 5: herbicidal effect by foliage application, plastic box (Table 20, symbol O); type: in vivo, lambsquarters (Chenopodium album); conditions: foliage application, AAH 320 g/ha, evaluated three weeks after application
How it was run: as §1

[26] = tested on: redroot pigweed; assay: Test Example 5: herbicidal effect by foliage application, plastic box (Table 20, symbol N); type: in vivo, redroot pigweed (Amaranthus retroflexus); conditions: foliage application, AAH 320 g/ha, evaluated three weeks after application
How it was run: as §1

[27] = tested on: wild oat; assay: Test Example 5: herbicidal effect by foliage application, plastic box (Table 20, symbol I); type: in vivo, wild oat (Avena fatua); conditions: foliage application, AAH 320 g/ha, evaluated three weeks after application
How it was run: as §1

[28] = tested on: blackgrass; assay: Test Example 5: herbicidal effect by foliage application, plastic box (Table 20, symbol J); type: in vivo, blackgrass (Alopecurus myosuroides); conditions: foliage application, AAH 320 g/ha, evaluated three weeks after application
How it was run: as §1

[29] = tested on: barnyard grass; assay: Test Example 3: herbicidal effect by foliage application, Wagner pot (Table 18, symbol H); type: in vivo, barnyard grass (Echinochloa crus-galli); conditions: amount of applied herbicide 320 g/ha
How it was run: as §4

[30] = tested on: blackgrass; assay: Test Example 4: herbicidal effect by soil treatment (Table 19, symbol J); type: in vivo, blackgrass (Alopecurus myosuroides); conditions: amount of applied herbicide 320 g/ha
How it was run: as §2

[31] = amount of applied herbicide 320 g/ha

| SMILES | K: Italian ryegrass, herbicidal effect (criteria 0-5) [1] | M: velvetleaf, herbicidal effect (criteria 0-5) [3] | G: green foxtail, herbicidal effect (criteria 0-5) [5] | R: persian speedwell, herbicidal effect (criteria 0-5) [6] | F: southern crabgrass, herbicidal effect (criteria 0-5) [11] | P: chickweed, herbicidal effect (criteria 0-5) [14] | H: barnyard grass, herbicidal effect (criteria 0-5) [16] | herbicidal effect on E: rice flat sedge [17] | herbicidal effect on D: Chinese sprangletop [22] | L: windgrass, herbicidal effect (criteria 0-5) [24] | O: lambsquarters, herbicidal effect (criteria 0-5) [25] | N: redroot pigweed, herbicidal effect (criteria 0-5) [26] | I: wild oat, herbicidal effect (criteria 0-5) [27] | J: blackgrass, herbicidal effect (criteria 0-5) [28] | herbicidal effect on H: barnyard grass [29] | other results |
| --- | --- | --- | --- | --- | --- | --- | --- | --- | --- | --- | --- | --- | --- | --- | --- | --- |
| Cc1nn(C)c(=O)c(-c2c(-c3ccc(F)c(F)c3)sc3ccc(F)cc23)c1O [2-344] | 5 (Herbicidal rate of 90% or more (almost completely withered)) | 5 (Herbicidal rate of 90% or more (almost completely withered)) | 5 (Herbicidal rate of 90% or more (almost completely withered)) | 5 (Herbicidal rate of 90% or more (almost completely withered)) | 5 (Herbicidal rate of 90% or more (almost completely withered)) | 5 (Herbicidal rate of 90% or more (almost completely withered)) | 5 (Herbicidal rate of 90% or more (almost completely withered)) | 5 (Herbicidal rate of 90% or more (almost completely withered)) | 4 (Herbicidal rate of 70% or more and less than 90%) | 5 (Herbicidal rate of 90% or more (almost completely withered)) | 4 (Herbicidal rate of 70% or more and less than 90%) | 5 (Herbicidal rate of 90% or more (almost completely withered)) | 3 (Herbicidal rate of 40% or more and less than 70%) | 2 (Herbicidal rate of 20% or more and less than 40%) | 5 (Herbicidal rate of 90% or more (almost completely withered)) | herbicidal effect on M: velvetleaf [2]: 3 (Herbicidal rate of 40% or more and less than 70%); Herbicidal effect on A: late watergrass (grade 0-5) ([4]; 320 g/ha applied herbicide): 0 (Herbicidal rate of 5% or less (almost no effect)); herbicidal effect on L: windgrass [7]: 0 (Herbicidal rate of 5% or less (almost no effect)); Herbicidal effect on B: Japanese bulrush (grade 0-5) ([8]; 320 g/ha applied herbicide): 2 (Herbicidal rate of 20% or more and less than 40%); herbicidal effect on H: barnyard grass [9]: 4 (Herbicidal rate of 70% or more and less than 90%); herbicidal effect on P: chickweed [10]: 4 (Herbicidal rate of 70% or more and less than 90%); herbicidal effect on F: southern crabgrass [12]: 5 (Herbicidal rate of 90% or more (almost completely withered)); herbicidal effect on G: green foxtail [13]: 5 (Herbicidal rate of 90% or more (almost completely withered)); herbicidal effect on K: Italian ryegrass [15]: 5 (Herbicidal rate of 90% or more (almost completely withered)); herbicidal effect on O: lambsquarters [18]: 5 (Herbicidal rate of 90% or more (almost completely withered)); herbicidal effect on N: redroot pigweed [19]: 5 (Herbicidal rate of 90% or more (almost completely withered)); herbicidal effect on R: persian speedwell [20]: 5 (Herbicidal rate of 90% or more (almost completely withered)); Herbicidal effect on C: oval-leafed pondweed (grade 0-5) ([21]; 320 g/ha applied herbicide): 0 (Herbicidal rate of 5% or less (almost no effect)); herbicidal effect on I: wild oat [23]: 0 (Herbicidal rate of 5% or less (almost no effect)); herbicidal effect on J: blackgrass [30]: 0 (Herbicidal rate of 5% or less (almost no effect)) |
| CCCC(=O)Oc1c(C)nn(C)c(=O)c1-c1c(-c2cnccc2C(F)(F)F)sc2ccc(F)cc12 [2-388] | 3 (Herbicidal rate of 40% or more and less than 70%) | 5 (Herbicidal rate of 90% or more (almost completely withered)) | 3 (Herbicidal rate of 40% or more and less than 70%) | 5 (Herbicidal rate of 90% or more (almost completely withered)) | 1 (Herbicidal rate of 5% or more and less than 20%) | 5 (Herbicidal rate of 90% or more (almost completely withered)) | 4 (Herbicidal rate of 70% or more and less than 90%) | 3 (Herbicidal rate of 40% or more and less than 70%) | 3 (Herbicidal rate of 40% or more and less than 70%) | 4 (Herbicidal rate of 70% or more and less than 90%) | 4 (Herbicidal rate of 70% or more and less than 90%) | 4 (Herbicidal rate of 70% or more and less than 90%) | 3 (Herbicidal rate of 40% or more and less than 70%) | 1 (Herbicidal rate of 5% or more and less than 20%) | 5 (Herbicidal rate of 90% or more (almost completely withered)) | herbicidal effect, M: velvetleaf [2]: 0 (Herbicidal rate of 5% or less (almost no effect)); Herbicidal effect, A: late watergrass [4, 31]: 5 (Herbicidal rate of 90% or more (almost completely withered)); herbicidal effect, L: windgrass [7]: 0 (Herbicidal rate of 5% or less (almost no effect)); Herbicidal effect, B: Japanese bulrush [8, 31]: 0 (Herbicidal rate of 5% or less (almost no effect)); herbicidal effect, H: barnyard grass [9]: 3 (Herbicidal rate of 40% or more and less than 70%); herbicidal effect, P: chickweed [10]: 5 (Herbicidal rate of 90% or more (almost completely withered)); herbicidal effect, F: southern crabgrass [12]: 0 (Herbicidal rate of 5% or less (almost no effect)); herbicidal effect, G: green foxtail [13]: 0 (Herbicidal rate of 5% or less (almost no effect)); herbicidal effect, K: Italian ryegrass [15]: 0 (Herbicidal rate of 5% or less (almost no effect)); herbicidal effect, O: lambsquarters [18]: 2 (Herbicidal rate of 20% or more and less than 40%); herbicidal effect, N: redroot pigweed [19]: 1 (Herbicidal rate of 5% or more and less than 20%); herbicidal effect, R: persian speedwell [20]: 5 (Herbicidal rate of 90% or more (almost completely withered)); Herbicidal effect, C: oval-leafed pondweed [21, 31]: 0 (Herbicidal rate of 5% or less (almost no effect)); herbicidal effect, I: wild oat [23]: 0 (Herbicidal rate of 5% or less (almost no effect)); herbicidal effect, J: blackgrass [30]: 0 (Herbicidal rate of 5% or less (almost no effect)) |
